Laboratory results: PubChem BioAssay (NCI)
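Tested at 5 concentrations; 48 h exposure; 96-well plates; endpoints linearly interpolated, else capped at highest concentration. The concentration for 50% growth inhibition is given as GI50. At the TGI there is no net growth.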

Columns and labels:
Assay in all cases: NCI-60 cell line screen, 48 h
RPMI-8226 leukemia = tested on: RPMI-8226 leukemia
EKVX NSCLC = tested on: EKVX NSCLC
SNB-75 CNS = tested on: SNB-75 CNS
K-562 leukemia = tested on: K-562 leukemia
HL-60(TB) leukemia = tested on: HL-60(TB) leukemia
SR leukemia = tested on: SR leukemia
SK-MEL-28 melanoma = tested on: SK-MEL-28 melanoma
HT29 colon = tested on: HT29 colon
SF-539 CNS = tested on: SF-539 CNS
DLD-1 colon = tested on: DLD-1 colon
SF-295 CNS = tested on: SF-295 CNS
OVCAR-4 ovarian = tested on: OVCAR-4 ovarian
LOX IMVI melanoma = tested on: LOX IMVI melanoma
UACC-257 melanoma = tested on: UACC-257 melanoma
HOP-92 NSCLC = tested on: HOP-92 NSCLC
NCI-H23 lung = tested on: NCI-H23 lung
SK-MEL-2 melanoma = tested on: SK-MEL-2 melanoma
SF-268 CNS = tested on: SF-268 CNS
HOP-62 NSCLC = tested on: HOP-62 NSCLC
KM12 colon = tested on: KM12 colon
UO-31 renal = tested on: UO-31 renal
NCI-H460 lung = tested on: NCI-H460 lung
OVCAR-8 ovarian = tested on: OVCAR-8 ovarian
SNB-78 CNS = tested on: SNB-78 CNS
HCT-116 colon = tested on: HCT-116 colon
COLO 205 colon = tested on: COLO 205 colon
M19-MEL melanoma = tested on: M19-MEL melanoma
SK-OV-3 ovarian = tested on: SK-OV-3 ovarian
NCI-H226 lung = tested on: NCI-H226 lung
RXF-631 renal = tested on: RXF-631 renal
U251 CNS = tested on: U251 CNS
SW-620 colon = tested on: SW-620 colon
NCI-H522 lung = tested on: NCI-H522 lung
HCT-15 colon = tested on: HCT-15 colon
DMS 273 small cell lung = tested on: DMS 273 small cell lung
KM20L2 colon = tested on: KM20L2 colon
RXF 393 renal = tested on: RXF 393 renal
OVCAR-3 ovarian = tested on: OVCAR-3 ovarian
CAKI-1 renal = tested on: CAKI-1 renal
SK-MEL-5 melanoma = tested on: SK-MEL-5 melanoma
OVCAR-5 ovarian = tested on: OVCAR-5 ovarian
TK-10 renal = tested on: TK-10 renal
UACC-62 melanoma = tested on: UACC-62 melanoma
M14 melanoma = tested on: M14 melanoma
HCC-2998 colon = tested on: HCC-2998 colon
SN12C renal = tested on: SN12C renal
CCRF-CEM leukemia = tested on: CCRF-CEM leukemia
A549 NSCLC = tested on: A549 NSCLC
HOP-18 NSCLC = tested on: HOP-18 NSCLC
MOLT-4 leukemia = tested on: MOLT-4 leukemia
IGROV1 ovarian = tested on: IGROV1 ovarian
ACHN renal = tested on: ACHN renal
SNB-19 CNS = tested on: SNB-19 CNS
786-0 renal = tested on: 786-0 renal
LXFL 529 NSCLC = tested on: LXFL 529 NSCLC
XF 498 CNS = tested on: XF 498 CNS
DMS 114 small cell lung = tested on: DMS 114 small cell lung
MALME-3M melanoma = tested on: MALME-3M melanoma

SMILES: Cc1ccc(S(=O)(=O)O/N=C2\CCC\C2=C/c2ccccc2)cc1
- TGI (RPMI-8226 leukemia): 37.3 µM
- TGI (EKVX NSCLC): 35.3 µM
- TGI (SNB-75 CNS): 44.1 µM
- TGI (K-562 leukemia): > 100 µM
- TGI (HL-60(TB) leukemia): > 100 µM
- TGI (SR leukemia): 43.4 µM
- TGI (SK-MEL-28 melanoma): 24.1 µM
- TGI (HT29 colon): 60.1 µM
- TGI (SF-539 CNS): 43.5 µM
- TGI (DLD-1 colon): 46.3 µM
- TGI (SF-295 CNS): 50.1 µM
- TGI (OVCAR-4 ovarian): 58.6 µM
- TGI (LOX IMVI melanoma): > 100 µM
- TGI (UACC-257 melanoma): 31.4 µM
- TGI (HOP-92 NSCLC): 34.5 µM
- TGI (NCI-H23 lung): 38.9 µM
- TGI (SK-MEL-2 melanoma): 30.8 µM
- TGI (SF-268 CNS): 27.7 µM
- TGI (HOP-62 NSCLC): > 100 µM
- TGI (KM12 colon): 32.6 µM
- TGI (UO-31 renal): 42.5 µM
- TGI (NCI-H460 lung): 47.9 µM
- TGI (OVCAR-8 ovarian): > 100 µM
- TGI (SNB-78 CNS): 13 µM
- TGI (HCT-116 colon): 25.3 µM
- TGI (COLO 205 colon): 29.8 µM
- TGI (M19-MEL melanoma): 44.3 µM
- TGI (SK-OV-3 ovarian): > 100 µM
- TGI (NCI-H226 lung): 37.7 µM
- TGI (RXF-631 renal): 36.5 µM
- TGI (U251 CNS): 88.6 µM
- TGI (SW-620 colon): > 100 µM
- TGI (NCI-H522 lung): 37.8 µM
- TGI (HCT-15 colon): 73.8 µM
- TGI (DMS 273 small cell lung): > 100 µM
- TGI (KM20L2 colon): 49 µM
- TGI (RXF 393 renal): 44 µM
- TGI (OVCAR-3 ovarian): 32.8 µM
- TGI (CAKI-1 renal): 36.8 µM
- TGI (SK-MEL-5 melanoma): 28.4 µM
- TGI (OVCAR-5 ovarian): 42.6 µM
- TGI (TK-10 renal): 30.4 µM
- TGI (UACC-62 melanoma): 27.2 µM
- TGI (M14 melanoma): 47.4 µM
- TGI (HCC-2998 colon): 31.6 µM
- TGI (SN12C renal): > 100 µM
- TGI (CCRF-CEM leukemia): > 100 µM
- TGI (A549 NSCLC): > 100 µM
- TGI (HOP-18 NSCLC): 34.6 µM
- TGI (MOLT-4 leukemia): 29.2 µM
- TGI (IGROV1 ovarian): > 100 µM
- TGI (ACHN renal): 23.3 µM
- TGI (SNB-19 CNS): > 100 µM
- TGI (786-0 renal): 67.9 µM
- TGI (LXFL 529 NSCLC): 83.9 µM
- TGI (XF 498 CNS): 33.3 µM

SMILES: CC(C)(C)N=Cc1ccccc1[O-].CC(C)(C)N=Cc1ccccc1[O-].[Co+2]
- GI50 (RPMI-8226 leukemia): 18 µM
- TGI (RPMI-8226 leukemia): > 100 µM
- GI50 (EKVX NSCLC): 60.7 µM
- TGI (EKVX NSCLC): > 100 µM
- GI50 (SNB-75 CNS): > 100 µM
- TGI (SNB-75 CNS): > 100 µM
- GI50 (DMS 114 small cell lung): 26.1 µM
- TGI (DMS 114 small cell lung): > 100 µM
- GI50 (SR leukemia): 6.3 µM
- TGI (SR leukemia): > 100 µM
- GI50 (SK-MEL-28 melanoma): 55.8 µM
- TGI (SK-MEL-28 melanoma): > 100 µM
- GI50 (SF-539 CNS): > 100 µM
- TGI (SF-539 CNS): > 100 µM
- GI50 (DLD-1 colon): 52.7 µM
- TGI (DLD-1 colon): > 100 µM
- GI50 (SF-295 CNS): > 100 µM
- TGI (SF-295 CNS): > 100 µM
- GI50 (OVCAR-4 ovarian): 56.5 µM
- TGI (OVCAR-4 ovarian): > 100 µM
- GI50 (LOX IMVI melanoma): > 100 µM
- TGI (LOX IMVI melanoma): > 100 µM
- GI50 (NCI-H23 lung): 8.39 µM
- TGI (NCI-H23 lung): > 100 µM
- GI50 (SK-MEL-2 melanoma): > 100 µM
- TGI (SK-MEL-2 melanoma): > 100 µM
- GI50 (SF-268 CNS): 60.7 µM
- TGI (SF-268 CNS): > 100 µM
- GI50 (KM12 colon): > 100 µM
- TGI (KM12 colon): > 100 µM
- GI50 (UO-31 renal): 18.8 µM
- TGI (UO-31 renal): > 100 µM
- GI50 (NCI-H460 lung): > 100 µM
- TGI (NCI-H460 lung): > 100 µM
- GI50 (OVCAR-8 ovarian): 76.7 µM
- TGI (OVCAR-8 ovarian): > 100 µM
- GI50 (HCT-116 colon): 80.4 µM
- TGI (HCT-116 colon): > 100 µM
- GI50 (COLO 205 colon): 45.3 µM
- TGI (COLO 205 colon): > 100 µM
- GI50 (M19-MEL melanoma): 54.4 µM
- TGI (M19-MEL melanoma): > 100 µM
- GI50 (NCI-H226 lung): 21.9 µM
- TGI (NCI-H226 lung): > 100 µM
- GI50 (RXF-631 renal): 23.2 µM
- TGI (RXF-631 renal): > 100 µM
- GI50 (U251 CNS): 58.2 µM
- TGI (U251 CNS): > 100 µM
- GI50 (SW-620 colon): 70.3 µM
- TGI (SW-620 colon): > 100 µM
- GI50 (NCI-H522 lung): 30.3 µM
- TGI (NCI-H522 lung): > 100 µM
- GI50 (HCT-15 colon): > 100 µM
- TGI (HCT-15 colon): > 100 µM
- GI50 (DMS 273 small cell lung): 37.2 µM
- TGI (DMS 273 small cell lung): > 100 µM
- GI50 (KM20L2 colon): 72.8 µM
- TGI (KM20L2 colon): > 100 µM
- GI50 (RXF 393 renal): > 100 µM
- TGI (RXF 393 renal): > 100 µM
- GI50 (OVCAR-3 ovarian): 17.4 µM
- TGI (OVCAR-3 ovarian): > 100 µM
- GI50 (CAKI-1 renal): 59.3 µM
- TGI (CAKI-1 renal): > 100 µM
- GI50 (SK-MEL-5 melanoma): 89.4 µM
- TGI (SK-MEL-5 melanoma): > 100 µM
- GI50 (OVCAR-5 ovarian): 3.31 µM
- TGI (OVCAR-5 ovarian): > 100 µM
- GI50 (TK-10 renal): 44.5 µM
- TGI (TK-10 renal): > 100 µM
- GI50 (UACC-62 melanoma): 12.1 µM
- TGI (UACC-62 melanoma): > 100 µM
- GI50 (M14 melanoma): 30.2 µM
- TGI (M14 melanoma): > 100 µM
- GI50 (HCC-2998 colon): > 100 µM
- TGI (HCC-2998 colon): > 100 µM
- GI50 (SN12C renal): > 100 µM
- TGI (SN12C renal): > 100 µM
- GI50 (A549 NSCLC): > 100 µM
- TGI (A549 NSCLC): > 100 µM
- GI50 (MALME-3M melanoma): 93.5 µM
- TGI (MALME-3M melanoma): > 100 µM
- GI50 (HOP-18 NSCLC): 7.08 µM
- TGI (HOP-18 NSCLC): 83 µM
- GI50 (IGROV1 ovarian): 22.8 µM
- TGI (IGROV1 ovarian): > 100 µM
- GI50 (SNB-19 CNS): > 100 µM
- TGI (SNB-19 CNS): > 100 µM
- GI50 (786-0 renal): 72.4 µM
- TGI (786-0 renal): > 100 µM
- GI50 (LXFL 529 NSCLC): 83.9 µM
- TGI (LXFL 529 NSCLC): > 100 µM
- GI50 (XF 498 CNS): > 100 µM
- TGI (XF 498 CNS): > 100 µM
